Assay results as given in US8841257B2, “Inhibitors of STAT3 and uses thereof” (Board of Regents, The University of Texas System, priority 2009, dated 2014).
“Also recorded” adds a separate entry of the source.

Key:
[1] = test system: SUM149 and MDA-MB-231 cells; assay: In vitro invasion of an artificial basement membrane; assay type: cell-based, human; settings: 5 μM in DMSO; 72 hours
Method: Effect of prodrugs on in vitro invasion of an artificial basement membrane by human breast cancer cells. SUM149 and MDA-MB-231 cells were trypsinized, resuspended in serum-supplemented medium, and counted. Cells were then washed 3 times with serum-free medium. Plates (6-well) compatible with transwell inserts with 8 μm pore-size polycarbonate filters (Fisher Scientific) were coated with Matrigel in cold serum-free DMEM/F12 at a final concentration of 0.7 mg/mL and held at room temperature for 40 minutes. Cells (in 500 μL serum-free medium) were added into the transwell inserts and incubated for 72 hours in the absence or presence 5 μM prodrug in DMSO (1% by volume). For a control, 10% FBS was used to evaluate the baseline extent of invasion of the different cell lines. After incubation, noninvading cells on the upper surface of the filter were removed with cotton swabs. Cells that had passed through the pores onto the lower side of the filter were fixed, stained with Hema-3 stain (Fisher Scientific), and quantified. The experiments were performed in triplicate and were repeated twice.

[2] = test system: SUM149 inflammatory breast tumor cells; assay: Anchorage-independent growth in soft agar, SUM149; assay type: cell-based; settings: 28 days
Method: (§1) Assay for anchorage-independent growth in soft agar Cells (5×10^5) were suspended in 1× DMEM/HEPES, 10% heat-inactivated FBS, 0.13% bicarbonate, and 0.33% BBL agar. The cells were plated on 1% base agar plates (60 mm) containing 1× DMEM/HEPES, 10% heat-inactivated FBS, and 1% BBL agar. Fresh serum-containing medium was fed to the cells on 3-day intervals. The dishes were then incubated at 37° C. with 5% CO2 for 28 days. The colonies that grew in soft agar were photographed and counted. Data are expressed as the number of colonies formed per plate±S.E.M. and three plates were counted per cell line.

STAT3 [3] = biological target: T1, STAT3 (Homo sapiens, UniProt P40763); assay: Inhibition of STAT3 phosphorylation in BT20 breast tumor cells (western blot); assay type: cell-based; parameters: endogenous in cells; host or cells: BT20 breast tumor cells; settings: BT20 time course
T1 sequence (P40763 whole entry): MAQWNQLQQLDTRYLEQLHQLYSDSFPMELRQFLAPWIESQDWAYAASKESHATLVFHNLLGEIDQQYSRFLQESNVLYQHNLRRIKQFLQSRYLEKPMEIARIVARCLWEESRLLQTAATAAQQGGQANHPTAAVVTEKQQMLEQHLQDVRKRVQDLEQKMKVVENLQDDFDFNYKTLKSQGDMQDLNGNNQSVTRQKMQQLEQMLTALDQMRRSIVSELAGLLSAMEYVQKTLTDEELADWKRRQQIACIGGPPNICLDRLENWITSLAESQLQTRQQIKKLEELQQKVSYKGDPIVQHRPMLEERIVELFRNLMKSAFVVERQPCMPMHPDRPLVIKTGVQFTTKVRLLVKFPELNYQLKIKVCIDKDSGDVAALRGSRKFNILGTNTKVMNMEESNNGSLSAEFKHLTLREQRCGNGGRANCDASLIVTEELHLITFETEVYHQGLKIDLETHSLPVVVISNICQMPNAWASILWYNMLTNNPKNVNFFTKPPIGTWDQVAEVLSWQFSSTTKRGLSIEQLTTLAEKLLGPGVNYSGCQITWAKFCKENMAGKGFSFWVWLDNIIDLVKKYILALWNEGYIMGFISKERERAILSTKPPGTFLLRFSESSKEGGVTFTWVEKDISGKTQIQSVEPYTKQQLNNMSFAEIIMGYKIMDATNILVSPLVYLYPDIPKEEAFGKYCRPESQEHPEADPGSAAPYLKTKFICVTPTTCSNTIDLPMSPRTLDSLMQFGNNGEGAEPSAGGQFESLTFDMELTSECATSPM
Method: Inhibition of STAT3 in BT20 Breast Tumor Cells. General procedure: 35 mm petri dishes were plated with 300,000 BT20 cells in 2 mL RPMI1640 media containing 10% FBS, […], streptomycin, and glutamine. Prodrugs were dissolved in DMSO and were added to the cells with fresh media at varying concentrations. After 2 h the cells were washed with ice cold phosphate buffered saline. Washed cells were treated with lysis buffer (50 mM Hepes, pH 7.4, 150 mM NaCl, 1.5 mM MgCl2, 1 mM EGTA, 100 mM NaF, 10 mM sodium pyrophosphate, 10% glycerol, 1% Triton X-100, 1 mM PMSF, 1 mM Na3VO4, 10 μg/mL leupeptin and 10 μg/mL aprotinin). Cell-free detergent extracts were centrifuged at 15,000 rpm in a microcentriguge for 30 min at 4° C. and the protein concentrations of the supernatants determined. Aliquots containing 12 μg of protein were separated on 8% SDS-PAGE and were transferred to PVDF filters. The filters were blocked with 5% bovine serum albumin and were probed with pStat3^Y705 antibody followed by secondary antibody, whose signal was detected with an enhanced chemiluminescence kit (ECL, Amersham, Chicago, Ill.). Filters were stripped with stripping buffer (62.5 mM Tris, pH 6.8, 2% SDS, and 0.1 M 2-mercaptoethanol) at 50° C. for 30 min. Filters were then probed with total Stat3 antibody and visualized with chemiluminescence as above.
Because DMSO is toxic, other formulations were evaluated for potential use in animal models. The compound of Example 1 was dissolved in EtOH, 20% (w/v) Trappsol (hydroxypropyl β-cyclodextran, pharmaceutical grade), or a liposomal formulation to a concentration of 5 mM. These formulations were given to cells at 0.1, 0.5, and 5 μM concentrations. At two hours, cells were lysed and pSTAT3 levels were determined by Western Blot (FIG. 3). Different formulations have little effect on inhibition of STAT3. The compound of Example 1 was dissolved in DMSO, EtOH, Trappsol, or as a 10 mol % mixture in dimyristoylphosphatidyl choline and applied to BT20 cell in culture. After two hours, cells were lysed and pSTAT3 levels determined by Western blot. To prepare liposomes a solution of 1.0 mg of the compound of Example 1, 7.2 mg of DMPC, 0.41 mg of Tween 20 in 1.0 mL of tert-butanol was lyophilized. A control lipid formulation of 7.2 mg of DMPC and 0.41 mg of Tween 20 in 1.0 mL of tert-butanol was lyophilized. These samples were mixed with 236 μL of H2O and were vortexed and sonicated for 5 min.
The compounds are selective for STAT3 over STAT1 in BT20 breast tumor cells. BT20 cells prepared as above and were treated with 5 μM of the compound of Example 1 for two hours then were treated with 25 ng/mL of interferon γ (IFNγ). […] (FIG. 4, bottom panel).
Time course of inhibition of STAT3 phosphorylation in BT20 cells. BT20 cells were plated as above and treated with the compounds from Examples 1 and 6 and western blots were performed at varying time intervals.

[4] = test system: MDA7, MDA-MB-231, SUM149, and SUM190; assay: Anchorage-independent growth in soft agar, four breast tumor models; assay type: cell-based; settings: MDA7, MDA-MB-231, SUM149, SUM190; 28 days
Method: as §1

STAT1 = biological target: T2, STAT1 (Homo sapiens, UniProt P42224); assay: IFNγ-stimulated STAT1 phosphorylation in MDA-MB-468 cells; assay type: cell-based; parameters: host or cells: MDA-MB-468 breast tumor cells
T2 sequence (P42224 1-750): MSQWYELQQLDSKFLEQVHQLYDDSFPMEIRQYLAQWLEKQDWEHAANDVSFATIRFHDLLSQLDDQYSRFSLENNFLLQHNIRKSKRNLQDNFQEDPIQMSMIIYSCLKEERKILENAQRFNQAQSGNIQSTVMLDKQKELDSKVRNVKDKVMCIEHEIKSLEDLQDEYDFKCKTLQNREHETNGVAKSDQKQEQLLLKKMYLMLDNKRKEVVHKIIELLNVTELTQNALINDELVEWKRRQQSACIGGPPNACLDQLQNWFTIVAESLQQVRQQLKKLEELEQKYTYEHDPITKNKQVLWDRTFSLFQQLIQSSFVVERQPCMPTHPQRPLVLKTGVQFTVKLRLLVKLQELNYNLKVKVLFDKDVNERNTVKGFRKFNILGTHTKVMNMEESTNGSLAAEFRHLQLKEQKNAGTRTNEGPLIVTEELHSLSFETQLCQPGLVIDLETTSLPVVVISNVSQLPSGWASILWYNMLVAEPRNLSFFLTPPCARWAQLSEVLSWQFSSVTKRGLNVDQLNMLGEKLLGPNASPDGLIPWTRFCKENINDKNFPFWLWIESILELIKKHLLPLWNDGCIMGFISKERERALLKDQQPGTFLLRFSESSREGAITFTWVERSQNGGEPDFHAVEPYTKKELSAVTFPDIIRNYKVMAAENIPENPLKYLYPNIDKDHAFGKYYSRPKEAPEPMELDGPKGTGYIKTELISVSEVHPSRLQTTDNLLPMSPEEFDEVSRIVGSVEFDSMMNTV
Method: Effect of Prodrug on the phosphorylation of STAT1 in MDA-MB-468 breast tumor cells. MDA-MB-468 cells were prepared as above. Prodrugs were prepared as 10 mM stock solutions in DMSO and aliquots were added to the culture media to give the correct final concentrations. After 1.5 hr interferonγ was added at 25 ng/mL. After 30 minutes cells were collected and lysed and proteins were separated by PAGE and transferred to PVDF filters as above. Filters were probed for phosphoTyr701 Stat 1 and total Stat1 using appropriate antibodies and similar detection procedures to those used for Stat3.

[5] = test system: Focal Adhesion Kinase (FAK); assay: Phosphorylation of Focal Adhesion Kinase Tyr861 in MDA-MB-468 cells; assay type: cell-based, human; settings: 2 hr treatment
Source text: Effect of Prodrug on the phosphorylation of Focal Adhesion Kinase (FAK) in MDA-MB-468 breast tumor cells. MDA-MB-468 cells express constitutive phosphorylation of Tyr861 of FAK (Laird, A. et al., Src Family Kinase Activity is Required For Signal Tranducer and Activator of Transcription 3 and Focal Adhesion Kinase Phosphorylation and Vascular Endothelial Growth Factor Signaling In Vivo and For Anchorage-Dependent and Independent Growth Of Human Tumor Cells, Mol Cancer Ther, 2, 461-9(2003). a unique substrate of Src upon recruitment via its SH2 domain (Calalb, M. B., et al, S. K. Focal adhesion kinase tyrosine-861 is a major site of phosphorylation by Src. Biochem Biophys Res Commun 1996, 228, 662-8 (1996.) To test for cross reactivity to the Src SH2 domain, MDA-MB-468 cell extracts were probed for phosphorylation of Tyr861 of FAK.

STAT3 [6] = biological target: T1, STAT3; assay: EGF-stimulated STAT3 phosphorylation in MDA-MB-468 cells; assay type: cell-based; parameters: host or cells: MDA-MB-468 breast tumor cells; settings: 1.5 hr prodrug, then EGF 100 ng/mL 30 min
Method: (§2) Effect of prodrug on the phosphorylation of STAT3, STAT5 and Akt in response to Epidermal Growth Factor stimulation. MDA-MB-468 cells were prepared as above. Prodrugs were prepared as 10 mM stock solutions in DMSO and aliquots were added to the culture media to give the correct final concentrations. After 1.5 hr EGF was added at 100 ng/mL. After 30 minutes cells were collected and lysed and proteins were separated by PAGE and transferred to three PVDF filters as above. The first filter was blocked with 5% bovine serum albumin and probed for total and phosphoStat3 as above. The second filter was probed for phosphoSer473Akt and total Akt using appropriate antibodies and similar detection procedures to those used for STAT3. The third filter was probed for phosphoTyr699 Stat5 and total STAT5 using appropriate antibodies and similar detection procedures to those used for STAT3.

STAT3 [7] = biological target: T1, STAT3; assay: Inhibition of Stat3 tyrosine705 phosphorylation in MDA-MB-468 cells; assay type: cell-based; parameters: host or cells: MDA-MB-468 breast tumor cells; settings: 2 h
Method: Inhibition of Stat3 tyrosine705 phosphorylation in MDA-MB-468 cells. MDA-MB-468 breast tumor cells (0.4×10^6) were plated onto 35 mm culture dishes and were allowed to grow overnight. Prodrugs were prepared as 10 mM stock solutions in DMSO and aliquots were added to the culture media to give the correct final concentrations. After 2 h the cells were washed with ice cold phosphate buffered saline. Washed cells were treated with lysis buffer (50 mM Hepes, pH 7.4, 150 mM NaCl, 1.5 mM MgCl2, 1 mM EGTA, 100 mM NaF, 10 mM sodium pyrophosphate, 10% glycerol, 1% Triton X-100, 1 mM PMSF, 1 mM Na3VO4, 10 μg/mL leupeptin and 10 μg/mL aprotinin). Cell-free detergent extracts were centrifuged at 15,000 rpm in a microcentriguge for 30 min at 4° C. and the protein concentrations of the supernatants determined. Aliquots containing 12 μg of protein were separated on 8% SDS-PAGE and were transferred to PVDF filters. The filters were blocked with 5% bovine serum albumin and were probed with pStat3^Y705 antibody followed by secondary antibody, whose signal was detected with an enhanced chemiluminescence kit (ECL, Amersham, Chicago, Ill.). Filters were stripped with stripping buffer (62.5 mM Tris, pH 6.8, 2% SDS, and 0.1 M 2-mercaptoethanol) at 50° C. for 30 min. Filters were then probed with total Stat3 antibody and visualized with chemiluminescence as above.

STAT5 = assay: EGF-stimulated STAT5 phosphorylation in MDA-MB-468 cells; assay type: cell-based, human; settings: 1.5 hr prodrug, then EGF 100 ng/mL 30 min
Method: as §2

Akt = assay: EGF-stimulated Akt Ser473 phosphorylation in MDA-MB-468 cells; assay type: cell-based, human; settings: 1.5 hr prodrug, then EGF 100 ng/mL 30 min
Method: as §2

| Compound | invasion through the artificial basement membrane [1] | colony formation in soft agar [2] | effectiveness of phosphate (X=O) relative to difluoromethyl phosphonate Example 1 (X=CF2) (STAT3 [3]) | colony formation in soft agar, four breast tumor models [4] | inhibition of Stat1 phosphorylation compared with Stat3 phosphorylation (STAT1; 1.5 hr prodrug, then interferonγ 25 ng/mL 30 min) | fold less potent at inhibiting STAT1 than STAT3 (STAT1; MDA-MB-468 cells) | phosphorylation of FAK Tyr861 [5] | EGF-induced increase in Stat3 phosphorylation (STAT3 [6]) | concentration as low as which partial inhibition of STAT3 phosphorylation was seen (STAT3 [7]) | concentration at which complete inhibition of STAT3 phosphorylation occurred (STAT3 [7]) | inhibition of Tyr705 phosphorylation of Stat3 (potency in words) (STAT3 [7]; prodrug in DMSO) | Stat5 phosphorylation after EGF (STAT5) | Akt Ser473 phosphorylation after EGF (Akt) |
| --- | --- | --- | --- | --- | --- | --- | --- | --- | --- | --- | --- | --- | --- |
| C/C(=C\C(=O)N[C@H]1CCc2cccc3c2N(C1=O)[C@H](C(=O)N[C@H](C)CCC(N)=O)C3)c1ccc(C(F)(F)P(=O)(Oc2ccccc2)Oc2ccccc2)cc1 [Example 8, (E)-3-[4-[(Diphenoxyphosphinyl)difluoromethyl]phenyl]-but-2-enoyl-Haic-(R)-4-aminopentamide] | inhibited invasion | inhibition of colony formation | as effective as | inhibition | – | – | – | – | – | – | – | – | – |
| CCCC[C@H](NC(=O)/C=C(\C)c1ccc(C(F)(F)P(=O)(OCOC(=O)C(C)(C)C)OCOC(=O)C(C)(C)C)cc1)C(=O)N1C[C@H]2CC2[C@H]1C(=O)N[C@H](C)CCC(N)=O (stereo partly drawn) [Example 18, (2E)-3-[4-[[bis[(2,2-dimethyl-1-oxopropoxy)methoxy]phosphinyl]difluoromethyl]phenyl]-but-2-enoyl-norleucinyl-(2S,3R,4S)-methanoprolinyl-(R)-4-aminopentamide] | – | – | – | – | less effective | about 10 fold | no reduction; also recorded: do not inhibit | effective at inhibiting | 10 nM | 500 nM | very potent inhibitors; also recorded: inhibit phosphorylation of STAT3 | no effect | no effect |
